Laboratory results: patent US6492385B2, “Quinuclidine-substituted heteroaryl moieties for treatment of disease” (Pharmacia & Upjohn Company, priority 2000, dated 2002)
Structures can show the parent of a compound that is named as a salt.

Molecular target: α7 nAChR (Rattus norvegicus, UniProt Q05941)
Assay: [3H]-MLA competition binding assay, rat brain membranes

Sequence of α7 nAChR (Q05941 23-502): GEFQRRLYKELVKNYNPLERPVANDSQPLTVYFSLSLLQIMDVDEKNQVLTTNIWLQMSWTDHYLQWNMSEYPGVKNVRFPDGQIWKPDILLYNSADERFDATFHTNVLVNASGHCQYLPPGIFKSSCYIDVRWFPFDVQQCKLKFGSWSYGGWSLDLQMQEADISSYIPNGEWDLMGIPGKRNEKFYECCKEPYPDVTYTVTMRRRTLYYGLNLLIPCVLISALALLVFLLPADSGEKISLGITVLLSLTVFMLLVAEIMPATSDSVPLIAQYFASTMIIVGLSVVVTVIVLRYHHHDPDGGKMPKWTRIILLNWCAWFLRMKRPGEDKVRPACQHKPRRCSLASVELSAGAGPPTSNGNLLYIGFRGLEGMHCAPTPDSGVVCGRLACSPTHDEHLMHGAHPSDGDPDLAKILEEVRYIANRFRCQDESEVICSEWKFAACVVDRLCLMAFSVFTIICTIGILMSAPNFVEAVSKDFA

SMILES | Ki [nM]
COc1ccc(C(=O)N[C@H]2CN3CCC2CC3)s1 [Example 19, N-[(3R)-1-Azabicyclo[2.2.2]oct-3-yl]-5-methoxy-thiophene-2-carboxamide Hydrochloride] | 2 to 4
O=C(N[C@H]1CN2CCC1CC2)c1ccc(-c2ccccc2O)s1 [Example 41, N-[(3R)-1-Azabicyclo[2.2.2]oct-3-yl]-5-(2-hydroxyphenyl)-thiophene-2-carboxamide Hydrochloride] | 3 to 4
